The text below walks through data of patent publication US20240158418A1 (C4 Therapeutics, Inc., priority 2021, published 2024).

In one experiment the target is EGFR L858R (Homo sapiens, UniProt P00533, L858R). As to the kind of experiment: EGFR degradation, Total EGFR (L858R-specific) HTRF, NCI-H3255. The format is cell-based. On the set-up: NCI-H3255 (harboring EGFR heterozygous L858R mutation); host or cells: NCI-H3255. The note with it: NCI-H3255 cells, 6 hours, Total EGFR HTRF, read-out: H3255 EGFR DC50. An excerpt:
NCI-H1975 (harboring EGFR heterozygous L858R-T790M mutations) and NCI-H3255 (harboring EGFR heterozygous L858R mutation) were purchased from ATCC and NCI, respectively. NCI-H1975+CS (harboring EGFR heterozygous L858R-T790M-C797S mutations) was generated using CRISPR technology to introduce the additional C797S mutation by Horizon Discovery. A431 (harboring EGFR wildtype) was purchased from ATCC. RPMI 1640 no-phenol red medium and fetal bovine serum (FBS) were purchased from Gibco (Grand Island, NY, USA). Cell culture flasks and 384-well microplates were acquired from VWR (Radnor, PA, USA). Phosphorylated (pY1068) EGFR and Total EGFR (using L858R-specific detection antibody and pan-EGFR antibody for EGFR mutant cell lines and EGFR wild-type cell lines, respectively) HTRF assay kits were purchased from Cisbio (Bedford, MA, USA).
Degradation of EGFR protein containing L858R mutation or wild-type was determined based on quantification of FRET signal using a Total EGFR (L858R-specific or pan-EGFR detecting) HTRF assay kit. Phospho-EGFR (pEGFR) inhibition was determined based on quantification of FRET signal using a pY1068 EGFR HTRF assay kit. In separate assay plates, test compounds were added to the 384-well plate from a top concentration of 10 μM with 11 points, half log titration in duplicates. For each assay, 12.5 uL of cells suspended in assay media (RPMI 1640 no-phenol red medium+10% FBS) at cell densities indicated for each cell line in Table 8 below were dispensed using a multi-channel pipette to 384-well low volume white HTRF microplates containing a duplicate concentration range of test compounds and DMSO controls. The plates were kept at 37° C. with 5% CO2 for 6 hours and then incubated with either phospho EGFR or Total EGFR HTRF detection antibodies according to the cell line and EGFR mutant being assayed. Cells treated in the absence of the test compound were the negative control. Positive control was set by wells containing all reagents but no cells. FRET signal was acquired on EnVision™ Multilabel Reader (PerkinElmer, Santa Clara, CA, USA). Compound concentration that achieves 50% degradation and inhibition was reported as DC50 and IC50, respectively.

The target in another experiment is T1, EGFR L858R-T790M (Homo sapiens, UniProt P00533, L858R/T790M).
T1 construct: NCI-H1975 (harboring EGFR heterozygous L858R-T790M mutations); host or cells: NCI-H1975
As to the kind of experiment: EGFR degradation, Total EGFR (L858R-specific) HTRF, NCI-H1975. The experiment is classed as cell-based. To be noted: NCI-H1975 cells, 6 hours, Total EGFR HTRF, read-out: H1975 EGFR DC50. In outline: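 HTRF read-outs: pY1068 phospho-EGFR for IC50; total EGFR (pan-EGFR in A431, L858R-specific in mutant lines) for DC50. Compounds were titrated 11 points, half-log, from 10 μM in duplicate onto cells in 10% FBS RPMI, incubated 6 h at 37°C.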
Background: In TR-FRET formats the signal depends on donor and acceptor labels being close together.

Where two headings read alike, the source gives them in different places. Where only a bound is given, the exact number is not on record here.

Sequence of EGFR L858R (P00533 25-1210 L858R): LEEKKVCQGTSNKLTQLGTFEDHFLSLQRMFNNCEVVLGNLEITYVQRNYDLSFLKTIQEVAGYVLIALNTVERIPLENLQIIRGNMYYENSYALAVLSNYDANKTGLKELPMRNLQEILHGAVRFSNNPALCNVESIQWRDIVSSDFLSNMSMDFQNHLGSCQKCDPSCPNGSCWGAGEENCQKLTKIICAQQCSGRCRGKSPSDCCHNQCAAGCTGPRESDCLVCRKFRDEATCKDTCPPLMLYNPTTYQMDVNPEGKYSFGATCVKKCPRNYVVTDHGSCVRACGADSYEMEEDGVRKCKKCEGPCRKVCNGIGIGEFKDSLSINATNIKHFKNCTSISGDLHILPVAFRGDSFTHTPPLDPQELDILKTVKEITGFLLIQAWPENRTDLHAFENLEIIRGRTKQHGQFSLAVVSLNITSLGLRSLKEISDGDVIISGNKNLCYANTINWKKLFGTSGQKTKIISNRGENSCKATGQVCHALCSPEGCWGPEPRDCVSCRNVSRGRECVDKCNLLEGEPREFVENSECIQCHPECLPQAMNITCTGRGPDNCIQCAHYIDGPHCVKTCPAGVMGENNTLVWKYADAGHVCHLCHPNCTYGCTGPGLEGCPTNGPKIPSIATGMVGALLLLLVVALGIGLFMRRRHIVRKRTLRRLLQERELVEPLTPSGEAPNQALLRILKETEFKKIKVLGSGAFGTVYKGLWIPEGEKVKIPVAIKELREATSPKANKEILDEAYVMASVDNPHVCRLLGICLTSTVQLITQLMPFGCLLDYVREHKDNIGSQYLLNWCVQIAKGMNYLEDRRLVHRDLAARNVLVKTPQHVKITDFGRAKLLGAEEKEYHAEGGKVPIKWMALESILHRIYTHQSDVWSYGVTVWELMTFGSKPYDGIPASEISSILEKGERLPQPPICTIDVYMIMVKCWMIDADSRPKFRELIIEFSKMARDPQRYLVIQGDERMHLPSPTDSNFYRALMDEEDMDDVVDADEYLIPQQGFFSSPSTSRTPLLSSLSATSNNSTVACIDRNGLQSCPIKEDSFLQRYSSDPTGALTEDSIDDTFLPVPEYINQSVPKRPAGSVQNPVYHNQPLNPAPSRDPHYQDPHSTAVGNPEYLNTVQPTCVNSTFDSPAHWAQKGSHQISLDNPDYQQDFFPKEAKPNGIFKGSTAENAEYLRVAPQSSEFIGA
T1 sequence (P00533 25-1210 T790M/L858R): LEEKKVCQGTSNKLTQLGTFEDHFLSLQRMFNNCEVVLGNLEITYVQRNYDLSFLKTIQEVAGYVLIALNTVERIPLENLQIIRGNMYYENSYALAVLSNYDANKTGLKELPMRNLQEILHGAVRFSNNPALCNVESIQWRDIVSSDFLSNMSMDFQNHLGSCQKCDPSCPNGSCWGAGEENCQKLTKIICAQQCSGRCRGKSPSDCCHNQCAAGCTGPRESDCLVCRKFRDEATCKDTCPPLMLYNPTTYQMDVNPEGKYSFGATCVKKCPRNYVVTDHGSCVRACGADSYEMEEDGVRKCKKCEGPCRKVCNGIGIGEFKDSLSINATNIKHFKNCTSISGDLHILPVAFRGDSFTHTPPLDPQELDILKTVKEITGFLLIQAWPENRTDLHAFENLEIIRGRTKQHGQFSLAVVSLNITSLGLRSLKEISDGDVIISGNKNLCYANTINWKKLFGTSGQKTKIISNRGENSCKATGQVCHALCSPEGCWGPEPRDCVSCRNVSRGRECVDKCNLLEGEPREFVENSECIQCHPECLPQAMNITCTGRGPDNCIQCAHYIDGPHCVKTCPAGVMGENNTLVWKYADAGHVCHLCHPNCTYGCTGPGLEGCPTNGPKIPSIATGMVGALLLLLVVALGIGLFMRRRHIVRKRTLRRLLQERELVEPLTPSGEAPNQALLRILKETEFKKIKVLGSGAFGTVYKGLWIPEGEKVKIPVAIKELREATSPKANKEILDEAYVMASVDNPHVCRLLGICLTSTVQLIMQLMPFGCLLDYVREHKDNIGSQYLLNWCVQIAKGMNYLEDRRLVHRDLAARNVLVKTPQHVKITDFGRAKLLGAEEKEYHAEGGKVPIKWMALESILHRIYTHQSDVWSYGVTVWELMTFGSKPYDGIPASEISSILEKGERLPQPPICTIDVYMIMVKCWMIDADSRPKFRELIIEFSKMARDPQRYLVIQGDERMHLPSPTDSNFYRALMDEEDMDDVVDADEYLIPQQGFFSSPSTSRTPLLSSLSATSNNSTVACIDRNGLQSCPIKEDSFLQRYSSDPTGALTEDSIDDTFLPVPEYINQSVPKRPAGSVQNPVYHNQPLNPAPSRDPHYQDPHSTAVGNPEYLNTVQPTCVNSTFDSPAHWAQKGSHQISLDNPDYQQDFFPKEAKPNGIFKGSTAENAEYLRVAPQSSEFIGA

`Cn1nc(N2CCC(=O)NC2=O)c2ccc(C3CCN(CC(=O)N4CCN(c5ccc(-c6cc(F)c7cn(C(C(=O)Nc8nccs8)c8ncn9c8CCC9)nc7c6)cn5)CC4)CC3)cc21` (stereo not drawn) [Compound 67, 2-(6,7-dihydro-5H-pyrrolo[1,2-c]imidazol-1-yl)-2-[6-[6-[4-[2-[4-[3-(2,4-dioxohexahydropyrimidin-1-yl)-1-methyl-indazol-6-yl]-1-piperidyl]acetyl]piperazin-1-yl]-3-pyridyl]-4-fluoro-indazol-2-yl]-N-thiazol-2-yl-acetamide]: the 50% degradation concentration (DC50) on EGFR L858R (Table 9A) was 50 to 150 nM; at EGFR L858R-T790M (Table 9A) it was under 50 nM. As to `O=C1CC[C@@H](Nc2ccc(C3CCN(C(=O)CCCN4CCN(c5ccc(-c6cc(F)c7c(c6)C(=O)N(C(C(=O)Nc6nccs6)c6ncn8c6CCC8)C7)cc5)CC4)CC3)cc2)C(=O)N1` (stereo in doubt) [Compound 176, 2-(6,7-dihydro-5H-pyrrolo[1,2-c]imidazol-1-yl)-2-(6-(4-(4-(4-(4-(4-((2,6-dioxopiperidin-3-yl)amino)phenyl)piperidin-1-yl)-4-oxobutyl)piperazin-1-yl)phenyl)-4-fluoro-1-oxoisoindolin-2-yl)-N-(thiazol-2-yl)acetamide], the DC50 at EGFR L858R (Table 9B) and on EGFR L858R-T790M (Table 9B) was under 50 nM in each case. For the compound `O=C1CCC(Nc2ccc(C3CCN(CC(=O)N4CCN(c5ccc(-c6cc(F)c7c(c6)C(=O)N(C(C(=O)Nc6nccs6)c6ncn8c6CCC8)C7)cc5)CC4)CC3)nc2)C(=O)N1` (stereo not drawn) [Compound 179, 2-(6,7-dihydro-5H-pyrrolo[1,2-c]imidazol-1-yl)-2-[6-[4-[4-[2-[4-[5-[(2,6-dioxo-3-piperidyl)amino]-2-pyridyl]-1-piperidyl]acetyl]piperazin-1-yl]phenyl]-4-fluoro-1-oxo-isoindolin-2-yl]-N-thiazol-2-yl-acetamide], the DC50 on EGFR L858R (Table 9B) and on EGFR L858R-T790M (Table 9B) was under 50 nM each time. Take `Cn1nc(N2CCC(=O)NC2=O)c2ccc(C3CCN(CC(=O)N4CC5(C4)CN(c4ccc(-c6cc(F)c7c(c6)C(=O)N(C(C(=O)Nc6nccs6)c6ncn8c6CCC8)C7)cc4)C5)CC3)cc21` (stereo not drawn) [Compound 49, 2-(6,7-dihydro-5H-pyrrolo[1,2-c]imidazol-1-yl)-2-[6-[4-[2-[2-[4-[3-(2,4-dioxohexahydropyrimidin-1-yl)-1-methyl-indazol-6-yl]-1-piperidyl]acetyl]-2,6-diazaspiro[3.3]heptan-6-yl]phenyl]-4-fluoro-1-oxo-isoindolin-2-yl]-N-thiazol-2-yl-acetamide]: the DC50 at EGFR L858R (Table 9A) and on EGFR L858R-T790M (Table 9A) was under 50 nM each time. Consider `O=C1CCC(Nc2cc(F)c(N3CCC(O)(CC(=O)N4CC5(C4)CN(c4ccc(-c6cc(F)c7c(c6)C(=O)N(C(C(=O)Nc6nccs6)c6ncn8c6CCC8)C7)cc4)C5)CC3)c(F)c2)C(=O)N1` (stereo not drawn) [Compound 103, 2-(6,7-dihydro-5H-pyrrolo[1,2-c]imidazol-1-yl)-2-[6-[4-[2-[2-[1-[4-[(2,6-dioxo-3-piperidyl)-amino]-2,6-difluoro-phenyl]-4-hydroxy-4-piperidyl]acetyl]-2,6-diazaspiro[3.3]hept-an-6-yl]-phenyl]-4-fluoro-1-oxo-isoindolin-2-yl]-N-thiazol-2-yl-acetamide], for which the DC50 at EGFR L858R (Table 9B) and on EGFR L858R-T790M (Table 9B) was under 50 nM in each case. As for `O=C1CC[C@H](Nc2ccc(C3CCN(CC(=O)N4CCC(n5cc(-c6cc(F)c7c(c6)C(=O)N(C(C(=O)Nc6nccs6)c6ncn8c6CCC8)C7)cn5)CC4)CC3)cc2)C(=O)N1` (stereo partly drawn) [Compound 28, 2-(6,7-dihydro-5H-pyrrolo[1,2-c]imidazol-1-yl)-2-[6-[1-[1-[2-[4-[4-[[(3S)-2,6-dioxo-3-piperidyl]amino]phenyl]-1-piperidyl]acetyl]-4-piperidyl]pyrazol-4-yl]-4-fluoro-1-oxo-isoindolin-2-yl]-N-thiazol-2-yl-acetamide], the DC50 on EGFR L858R (Table 9A) and at EGFR L858R-T790M (Table 9A) was under 50 nM in each case.

With `O=C1CCC(Nc2ccc(N3CCCC(O)(CC(=O)N4CC5(C4)CN(c4ccc(-c6cc(F)c7c(c6)C(=O)N(C(C(=O)Nc6nccs6)c6ncn8c6CCC8)C7)cc4)C5)CC3)c(F)c2)C(=O)N1` (single isomer, unassigned; isomer a1) [Compound 164, 2-(6,7-dihydro-5H-pyrrolo[1,2-c]imidazol-1-yl)-2-[6-[4-[2-[2-[1-[4-[[2,6-dioxo-3-piperidyl]amino]-2-fluoro-phenyl]-4-hydroxy-azepan-4-yl]acetyl]-2,6-diazaspiro[3.3]heptan-6-yl]phenyl]-4-fluoro-1-oxo-isoindolin-2-yl]-N-thiazol-2-yl-acetamide, isomer A1], the DC50 at EGFR L858R-T790M (Table 9B) is 50 to 150 nM. As to `Cn1nc(N2CCC(=O)NC2=O)c2ccc(C3CCN(CC(=O)N4CCC5(CC4)CN(c4ccc(-c6cc(F)c7c(c6)C(=O)N(C(C(=O)Nc6nccs6)c6ncn8c6CCC8)C7)cc4)C5)CC3(F)F)cc21` (stereo not drawn) [Compound 174], the DC50 at EGFR L858R-T790M (Table 9B) is under 50 nM.

Regarding `O=C1CC[C@@H](Nc2ccc(N3CCC(O)(CC(=O)N4CC5(C4)CN(c4ccc(-c6cc(F)c7c(c6)C(=O)N(C(C(=O)Nc6nccs6)c6ncn8c6CCC8)C7)cn4)C5)CC3)c(F)c2)C(=O)N1` (stereo partly drawn) [Compound 111, 2-(6,7-dihydro-5H-pyrrolo[1,2-c]imidazol-1-yl)-2-(6-(6-(6-(2-(1-(4-(((R)-2,6-dioxopiperidin-3-yl)amino)-2-fluorophenyl)-4-hydroxypiperidin-4-yl)acetyl)-2,6-diazaspiro[3.3]heptan-2-yl)pyridin-3-yl)-4-fluoro-1-oxoisoindolin-2-yl)-N-(thiazol-2-yl)acetamide], the DC50 at EGFR L858R-T790M (Table 9B) was under 50 nM.

For the compound `O=C1CCC(Nc2cc(F)c(N3CCC(O)(CC(=O)N4CC5(C4)CN(c4ccc(-c6cc(F)c7c(c6)C(=O)N(C(C(=O)Nc6nccs6)c6ncn8c6CCC8)C7)cc4)C5)CC3)c(F)c2)C(=O)N1` (single isomer, unassigned; isomer 1) [Compound 119, 2-(6,7-dihydro-5H-pyrrolo[1,2-c]imidazol-1-yl)-2-(6-(4-(6-(2-(1-(4-((2,6-dioxopiperidin-3-yl)amino)-2,6-difluorophenyl)-4-hydroxypiperidin-4-yl)acetyl)-2,6-diazaspiro[3.3]heptan-2-yl)phenyl)-4-fluoro-1-oxoisoindolin-2-yl)-N-(thiazol-2-yl)acetamide, isomer 1], the DC50 at EGFR L858R-T790M (Table 9B) was under 50 nM. As for `Cn1nc(N2CCC(=O)NC2=O)c2cc(F)c(C3CCN(CC(=O)N4CC5(C4)CN(c4ccc(-c6cc(F)c7c(c6)C(=O)N(C(C(=O)Nc6nccs6)c6ncn8c6CCC8)C7)cc4)C5)CC3(F)F)cc21` (single isomer, unassigned; isomer 1) [Compound 129, 2-(6,7-dihydro-5H-pyrrolo[1,2-c]imidazol-1-yl)-2-[6-[4-[2-[2-[4-[3-(2,4-dioxohexahydropyrimidin-1-yl)-5-fluoro-1-methyl-indazol-6-yl]-3,3-difluoro-1-piperidyl]acetyl]-2,6-diazaspiro[3.3]heptan-6-yl]phenyl]-4-fluoro-1-oxo-isoindolin-2-yl]-N-thiazol-2-yl-acetamide, isomer 1], the DC50 on EGFR L858R-T790M (Table 9B) is under 50 nM.

With `O=C1CCC(Nc2cnc(C3CCN(CC(=O)N4CC5(C4)CN(c4ccc(-c6cc(F)c7c(c6)C(=O)N(C(C(=O)Nc6nccs6)c6ncn8c6CCC8)C7)cc4)C5)CC3)c(F)c2)C(=O)N1` (stereo not drawn) [Compound 112, 2-(6,7-dihydro-5H-pyrrolo[1,2-c]imidazol-1-yl)-2-(6-(4-(6-(2-(4-(5-((2,6-dioxopiperidin-3-yl)amino)-3-fluoropyridin-2-yl)piperidin-1-yl)acetyl)-2,6-diazaspiro[3.3]heptan-2-yl)phenyl)-4-fluoro-1-oxoisoindolin-2-yl)-N-(thiazol-2-yl)acetamide], the half-maximal degradation concentration (DC50) at EGFR L858R-T790M (Table 9B) was under 50 nM.

The term DC50 denotes the concentration at which degradation of the target reaches its halfway point.
